Test results as given in patent publication US10294202B2, “Pyrrolidinones as herbicides” (FMC Corporation, priority 2013, dated 2019).

Key:
[1] = tested on: kochia; experiment: Test A pre-/postemergence herbicide test; type: in vivo, Kochia scoparia
Outline: (§1)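 Visual injury ratings, 0 = no effect, 100 = complete control, taken ~10 days after treatment against untreated greenhouse controls. Preemergence: directed soil spray onto seeded loam/sand pots. Postemergence: spray onto plants at one- to two-leaf stage, 2–10 cm tall.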

[2] = tested on: ragweed; experiment: Test A pre-/postemergence herbicide test; type: in vivo, Ambrosia elatior
Outline: as §1

[3] = tested on: galium; experiment: Test A postemergence herbicide test; type: in vivo, Galium aparine
Outline: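 Young potted plants in a loam–sand mix, one- to two-leaf stage and 2–10 cm tall, receive the test chemical postemergence and stay in a greenhouse for approximately 10 days. Injury is then judged by eye against untreated plants, scored 0 (none) to 100 (complete control).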

[4] = tested on: ryegrass, Italian; experiment: Test C pre-/postemergence herbicide test; type: in vivo, Lolium multiflorum
Outline: (§2)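 Pre- and postemergence greenhouse screen. Preemergence treatment went onto freshly planted seeds in loam–sand soil; postemergence treatment went onto plants 2 to 18 cm tall at the 1- to 4-leaf stage in sphagnum peat/vermiculite medium. Scoring at 13 to 15 days used a 0–100 control scale.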

[5] = tested on: wheat (winter wheat); experiment: Test C pre-/postemergence herbicide test; type: in vivo, Triticum aestivum
Outline: as §2

[6] = tested on: oat, wild; experiment: Test C pre-/postemergence herbicide test; type: in vivo, Avena fatua; details: Postemergence
Outline: as §2

[7] = tested on: rice; experiment: Test C flooded paddy test; type: in vivo, Oryza sativa; details: Flood
Outline: (§3)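 Ratings reflect visual comparison with controls on a 0–100 scale, where 100 is complete control. Compound is dosed into standing paddy water 3 cm deep over 2-leaf-stage plants, kept in the greenhouse 13 to 15 days.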

[8] = tested on: sedge, umbrella; experiment: Test C flooded paddy test; type: in vivo, Cyperus difformis; details: Flood
Outline: as §3

[9] = Postemergence, 125 g ai/ha, visual rating on 0 to 100 scale (0 no effect, 100 complete control), approx. 10 days
[10] = Postemergence, 500 g ai/ha, 0 to 100 scale (0 no effect, 100 complete control)
[11] = Preemergence, 125 g ai/ha, 0 to 100 scale where 0 is no effect and 100 is complete control
[12] = Preemergence, 500 g ai/ha, visual rating on 0 to 100 scale (0 no effect, 100 complete control)
[13] = 500 g ai/ha, 0 to 100 scale (0 no effect, 100 complete control)
[14] = Postemergence, 31 g ai/ha, scale 0 to 100 (0 no effect, 100 complete control)
[15] = Postemergence, 62 g ai/ha, scale 0 (no effect) to 100 (complete control)
[16] = Postemergence, 125 g ai/ha, scale 0 to 100 (0 no effect, 100 complete control)
[17] = Postemergence, 250 g ai/ha, scale 0 to 100 (0 no effect, 100 complete control)
[18] = Preemergence, 62 g ai/ha, scale 0 to 100 (0 no effect, 100 complete control)
[19] = Preemergence, 125 g ai/ha, scale 0 to 100
[20] = 31 g ai/ha, scale 0 to 100 (0 no effect, 100 complete control)
[21] = 62 g ai/ha, scale 0 (no effect) to 100 (complete control)
[22] = 125 g ai/ha, scale 0 to 100 (0 no effect, 100 complete control)
[23] = 250 g ai/ha, scale 0 to 100 (0 no effect, 100 complete control)
[24] = 31 g ai/ha, scale of 0 to 100 where 0 is no effect and 100 is complete control, 13 to 15 days
[25] = 62 g ai/ha, scale of 0 to 100 where 0 is no effect and 100 is complete control, 13 to 15 days
[26] = 125 g ai/ha, scale of 0 to 100 where 0 is no effect and 100 is complete control, 13 to 15 days
[27] = 250 g ai/ha, scale of 0 to 100 where 0 is no effect and 100 is complete control, 13 to 15 days
[28] = 125 g ai/ha, visual rating, 0 to 100 scale, 0 no effect, 100 complete control, approximately 10 days, preemergence
[29] = Postemergence, 125 g ai/ha, 0 to 100 scale, 0 is no effect, 100 is complete control
[30] = preemergence, 500 g ai/ha, 0 to 100 scale, 0 is no effect and 100 is complete control
[31] = 125 g ai/ha, 0 to 100 scale, 0 is no effect, 100 is complete control
[32] = Preemergence, 31 g ai/ha, scale 0 to 100, 0 is no effect and 100 is complete control
[33] = Preemergence, 125 g ai/ha, scale 0 to 100 (0 no effect, 100 complete control)
[34] = Postemergence, 125 g ai/ha, 0 to 100 scale, 0 no effect, 100 complete control
[35] = preemergence, 500 g ai/ha, 0 to 100 scale
[36] = Preemergence, 62 g ai/ha, scale 0 to 100
[37] = Postemergence, 16 g ai/ha, scale 0 to 100 (0 no effect, 100 complete control)
[38] = Preemergence, 16 g ai/ha, scale 0 to 100

O=C1NCC(c2cccc(OC(F)F)c2)C1C(=O)Nc1cccc(F)c1F (stereo not drawn) [Compound 324]
30: Plant response rating, Ragweed [2, 11]
35: Plant response rating, Ryegrass, Italian [4, 19]
65: Plant response rating, Wheat [5, 19]
25: Wheat plant response rating [5, 18]
10: Ryegrass, Italian plant response rating [4, 18]
5: Plant response rating, Oat, Wild [6, 23]
80: Plant response rating, Kochia [1, 10] | Kochia plant response rating [1, 12]
0: Plant response rating, Ryegrass, Italian [4, 14] | Plant response rating, Ryegrass, Italian [4, 15] | Plant response rating, Ryegrass, Italian [4, 16] | Plant response rating, Ryegrass, Italian [4, 17] | Plant response rating, Wheat [5, 14] | Plant response rating, Wheat [5, 15] | Plant response rating, Wheat [5, 16] | Plant response rating, Wheat [5, 17] | Plant response rating, Oat, Wild [6, 20] | Plant response rating, Oat, Wild [6, 21] | Plant response rating, Oat, Wild [6, 22] | Plant response rating, Rice [7, 24] | Plant response rating, Rice [7, 25] | Plant response rating, Rice [7, 26] | Plant response rating, Rice [7, 27] | Plant response rating, Sedge, Umbrella [8, 24] | Plant response rating, Sedge, Umbrella [8, 25] | Plant response rating, Sedge, Umbrella [8, 26] | Plant response rating, Sedge, Umbrella [8, 27]
50: Plant response rating, Kochia [1, 9] | Plant response rating, Ragweed [2, 10]
40: Plant response rating, Galium ([3]; 125 g ai/ha, visual rating on 0 to 100 scale (0 no effect, 100 complete control), approx. 10 days)
20: Plant response rating, Ragweed [2, 9]
70: Plant response rating, Kochia [1, 11]
60: Ragweed plant response rating [2, 12] | Plant response rating, Galium [3, 13]

O=C1NCC(c2ccc(C(F)(F)F)cc2)C1C(=O)Nc1ccc(F)c(F)c1F (stereo not drawn) [Compound 232]
30: Plant response rating, Ragweed [2, 28] | Plant response rating, Oat, Wild [6, 23]
70: Plant response rating, Kochia [1, 28]
90: Kochia plant response rating (0 to 100 scale, 0 is no effect, 100 is complete control) ([1]; Postemergence, 500 g ai/ha) | Plant response rating, Ragweed [2, 30]
15: Plant response rating, Rice [7, 27]
0: Plant response rating, Ryegrass, Italian [4, 14] | Plant response rating, Ryegrass, Italian [4, 15] | Plant response rating, Ryegrass, Italian [4, 16] | Ryegrass, Italian plant response rating [4, 32] | Ryegrass, Italian plant response rating [4, 18] | Plant response rating, Wheat [5, 14] | Plant response rating, Wheat [5, 15] | Wheat plant response rating [5, 32] | Wheat plant response rating [5, 18] | Plant response rating, Wheat [5, 33] | Plant response rating, Oat, Wild [6, 20] | Plant response rating, Oat, Wild [6, 21] | Plant response rating, Oat, Wild [6, 22] | Plant response rating, Rice [7, 24] | Plant response rating, Rice [7, 25] | Plant response rating, Rice [7, 26] | Plant response rating, Sedge, Umbrella [8, 24] | Plant response rating, Sedge, Umbrella [8, 25] | Plant response rating, Sedge, Umbrella [8, 26] | Plant response rating, Sedge, Umbrella [8, 27]
20: Plant response rating, Ragweed [2, 29] | Plant response rating, Ryegrass, Italian [4, 33]
40: Plant response rating, Ryegrass, Italian [4, 17] | Plant response rating (scale of 0 to 100), Ryegrass, Italian ([4]; Preemergence, 250 g ai/ha)
80: Plant response rating, Kochia [1, 29] | Plant response rating, Kochia [1, 30]
50: Ragweed plant response rating (0 to 100 scale, 0 is no effect, 100 is complete control) ([2]; Postemergence, 500 g ai/ha)
60: Plant response rating, Galium [3, 31] | Galium plant response rating (0 to 100 scale, 0 is no effect, 100 is complete control) ([3]; 500 g ai/ha)
5: Plant response rating, Wheat [5, 16] | Plant response rating, Wheat [5, 17] | Plant response rating (scale of 0 to 100), Wheat ([5]; Preemergence, 250 g ai/ha)

O=C1NCC(c2ccc(F)cc2)C1C(=O)Nc1cccc(F)c1F (racemic) [Compound 119]
10: Plant response rating, Rice [7, 26]
40: Plant response rating, Kochia [1, 28] | Plant response rating, Kochia [1, 34] | Plant response rating (scale of 0 to 100), Ryegrass, Italian ([4]; Preemergence, 250 g ai/ha)
70: Plant response rating, Ragweed [2, 28]
15: Plant response rating, Ryegrass, Italian [4, 36]
30: Ragweed plant response rating (0 to 100 scale, 0 is no effect, 100 is complete control) ([2]; Postemergence, 500 g ai/ha) | Plant response rating, Galium ([3]; 125 g ai/ha, 0 to 100 scale, 0 no effect, 100 complete control) | Plant response rating, Ryegrass, Italian [4, 33]
90: Plant response rating (scale of 0 to 100), Wheat ([5]; Preemergence, 250 g ai/ha)
20: Plant response rating, Ragweed [2, 34] | Plant response rating, Rice ([7]; 250 g ai/ha, scale 0 to 100)
0: Plant response rating, Ryegrass, Italian [4, 14] | Plant response rating, Ryegrass, Italian [4, 15] | Plant response rating, Ryegrass, Italian [4, 16] | Ryegrass, Italian plant response rating [4, 32] | Plant response rating, Wheat [5, 14] | Plant response rating, Wheat [5, 15] | Plant response rating, Wheat [5, 16] | Plant response rating, Wheat [5, 17] | Plant response rating, Oat, Wild [6, 20] | Plant response rating, Oat, Wild [6, 21] | Plant response rating, Oat, Wild [6, 22] | Plant response rating, Oat, Wild [6, 23] | Plant response rating, Rice [7, 24] | Plant response rating, Rice [7, 25] | Plant response rating, Sedge, Umbrella [8, 24] | Plant response rating, Sedge, Umbrella [8, 25] | Plant response rating, Sedge, Umbrella [8, 26] | Plant response rating, Sedge, Umbrella ([8]; 250 g ai/ha, scale 0 to 100)
50: Kochia plant response rating (0 to 100 scale, 0 is no effect, 100 is complete control) ([1]; Postemergence, 500 g ai/ha) | Galium plant response rating (0 to 100 scale, 0 is no effect, 100 is complete control) ([3]; 500 g ai/ha)
80: Plant response rating, Ragweed [2, 35]
5: Plant response rating, Ryegrass, Italian [4, 17] | Wheat plant response rating [5, 32] | Plant response rating, Wheat [5, 36]
60: Plant response rating, Kochia [1, 35] | Plant response rating, Wheat [5, 33]

CN1CC(c2cccc(C(F)(F)F)c2)C(C(=O)Nc2ccccc2F)C1=O (stereo not drawn) [Compound 277]
60: Plant response rating, Kochia [1, 30] | Wheat plant response rating [5, 32]
5: Plant response rating, Ryegrass, Italian [4, 15] | Plant response rating, Oat, Wild [6, 22]
70: Plant response rating, Galium [3, 31] | Plant response rating, Galium [3, 13] | Wheat plant response rating [5, 18]
20: Plant response rating, Ragweed [2, 11] | Plant response rating, Ragweed [2, 30]
40: Ryegrass, Italian plant response rating [4, 32] | Plant response rating, Ryegrass, Italian [4, 33] | Plant response rating, Wheat [5, 38]
35: Plant response rating, Ryegrass, Italian [4, 16] | Ryegrass, Italian plant response rating [4, 18]
30: Plant response rating, Kochia [1, 29] | Plant response rating, Kochia [1, 10] | Plant response rating, Kochia [1, 11] | Plant response rating, Ragweed [2, 9] | Plant response rating, Ragweed [2, 10] | Plant response rating, Ryegrass, Italian [4, 38]
0: Plant response rating, Ryegrass, Italian [4, 37] | Plant response rating, Ryegrass, Italian [4, 14] | Plant response rating, Wheat [5, 37] | Plant response rating, Wheat [5, 14] | Plant response rating, Wheat [5, 15] | Plant response rating, Wheat [5, 16] | Plant response rating, Oat, Wild ([6]; 16 g ai/ha, scale 0 to 100 (0 no effect, 100 complete control)) | Plant response rating, Oat, Wild [6, 20] | Plant response rating, Oat, Wild [6, 21] | Plant response rating, Rice [7, 25] | Plant response rating, Rice [7, 26] | Plant response rating, Rice [7, 27] | Plant response rating, Rice ([7]; 500 g ai/ha, scale 0 to 100) | Plant response rating, Sedge, Umbrella [8, 25] | Plant response rating, Sedge, Umbrella [8, 26] | Plant response rating, Sedge, Umbrella [8, 27] | Plant response rating, Sedge, Umbrella ([8]; 500 g ai/ha, scale 0 to 100)
